Data taken from US10597375B2, “Halogen-substituted heterocyclic compound” (UBE INDUSTRIES, LTD., priority 2012, dated 2020).

test system: A2058 human melanoma cells; test: Cell migration test (LPA-induced, Chemo-Tx); assay type: cell-based; settings: LPA 100 nM, 3 hours, read-out: IC50: concentration of the test compound which inhibits the cell migration activity of LPA by 50%
Method: The cell migration test was carried out using Chemo-Tx (registered trademark) (116-8, Neuro Probe). A2058 human melanoma cells (obtained from European Collection of Cell Culture) were cultured in a serum-free EMEM medium for 24 hours, and then re-suspended in a 0.1% BSA-containing DMEM medium to obtain a cell suspension. The test compound dissolved in DMSO in various concentration was each added to the cell suspension, and the suspension was cultured at 37° C. for 15 minutes (the final DMSO concentration of 0.5%). LPA dissolved in a 0.1% BSA-containing DMEM medium (the final concentration of 100 nM) was added to Chemo-Tx 96 well plate, and a Chemo-Tx filter which had been coated with 0.001% Fibronectin on the both surfaces was put on the plate. The suspension of cultured cells (25,000 cells) was added onto the upper surface of the filter and further cultured at 37° C. for 3 hours, and the cells on the upper surface of the filter were removed. After the filter was removed and dried, the cells which had migrated to the lower surface of the filter were stained using Diff-Quik stain (16920, Sysmex). The absorbance of the filter (570 nm) was measured and the concentration of the test compound which inhibits the cell migration activity of LPA by 50%, (1050) was determined by non-linear regression analysis using EXSAS (version 7.6.0, Arm Systex).

Question: How did the IC50 turn out when `CC(OC(=O)Nc1cc(F)sc1-c1ccc(-c2ccc(C3(C(=O)O)CC3)cc2)cc1)c1cc(F)c(F)cc1F` (racemic) [I-171, (RS)-1-{4′-[5-Fluoro-3-({[1-(2,4,5-trifluorophenyl)ethoxy]carbonyl}amino)thiophen-2-yl]-[1,1′-biphenyl]-4-yl}cyclopropanecarboxylic acid] was run?
Answer: ≤ 200 nM

Question: How did the IC50 turn out when `COc1cc(-c2sc(F)cc2NC(=O)OC(C)c2cc(F)ccc2Cl)ccc1-c1ccc(C2(C(=O)O)CC2)cc1` (racemic) [I-469, (RS)-1-{4′-[3-({[1-(2-Chloro-5-fluorophenyl)ethoxy]carbonyl}amino)-5-fluorothiophen-2-yl]-2′-methoxy-[1,1′-biphenyl]-4-yl}cyclopropanecarboxylic acid] was run?
Answer: ≤ 200 nM

Question: For `COc1cc(-c2sc(F)cc2NC(=O)OC(C)c2ccc(F)cc2C)ccc1-c1ccc(C2(C(=O)O)CC2)cc1` (racemic) [I-477, (RS)-1-{4′-[5-Fluoro-3-({[1-(4-fluoro-2-methylphenyl)ethoxy]carbonyl}amino)thiophen-2-yl]-2′-methoxy-[1,1′-biphenyl]-4-yl}cyclopropanecarboxylic acid], which IC50 is on record?
Answer: ≤ 200 nM

Question: `COc1cc(-c2sc(F)cc2NC(=O)OC(C)c2cc(F)ccc2C)ccc1-c1ccc(C2(C(=O)O)CC2)cc1` (racemic) [I-481, (RS)-1-{4′-[5-Fluoro-3-({[1-(5-fluoro-2-methylphenyl)ethoxy]carbonyl}amino)thiophen-2-yl]-2′-methoxy-[1,1′-biphenyl]-4-yl}cyclopropanecarboxylic acid] was tested. Which IC50 did it give?
Answer: ≤ 200 nM

Question: With `CC(OC(=O)Nc1cc(Cl)sc1-c1ccc(-c2ccc(C3(C(=O)O)CC3)cc2)cc1)c1ccsc1` (racemic) [I-595, (RS)-1-{4′-[5-Chloro-3-({[1-(thiophen-3-yl)ethoxy]carbonyl}amino)thiophen-2-yl]-[1,1′-biphenyl]-4-yl}cyclopropanecarboxylic acid] as the compound, how does the IC50 read?
Answer: ≤ 200 nM

Question: How did the IC50 turn out when `Cc1cscc1C(C)OC(=O)Nc1cc(Cl)sc1-c1ccc(-c2ccc(C3(C(=O)O)CC3)cc2)cc1` (racemic) [I-605, (RS)-1-{4′-[5-Chloro-3-({[1-(4-methylthiophen-3-yl)ethoxy]carbonyl}amino)thiophen-2-yl]-[1,1′-biphenyl]-4-yl}cyclopropanecarboxylic acid] was run?
Answer: ≤ 200 nM

Question: With `CC(OC(=O)Nc1cc(Cl)sc1-c1ccc(-c2ccc(C3(C(=O)O)CC3)cc2)cc1)c1ccsn1` (racemic) [I-621] as the compound, how does the IC50 read?
Answer: ≤ 200 nM

Question: Which IC50 does the source give for `CC(OC(=O)Nc1cc(Cl)sc1-c1ccc(-c2ccc(C3(C(=O)O)CC3)cc2)cc1)c1cnsc1` (racemic) [I-625, (RS)-1-{4′-[5-Chloro-3-({[1-(isothiazol-4-yl)ethoxy]carbonyl}amino)thiophen-2-yl]-[1,1′-biphenyl]-4-yl}cyclopropanecarboxylic acid] here?
Answer: ≤ 200 nM

Question: How did the IC50 turn out when `COc1cc(-c2sc(Cl)cc2NC(=O)OC(C)c2ccsc2)ccc1-c1ccc(C2(C(=O)O)CC2)cc1` (racemic) [I-779, (RS)-1-{4′-[5-Chloro-3-({[1-(thiophen-3-yl)ethoxy]carbonyl}amino)thiophen-2-yl]-2′-methoxy-[1,1′-biphenyl]-4-yl}cyclopropanecarboxylic acid] was run?
Answer: ≤ 200 nM

Question: With `COc1cc(-c2sc(Cl)cc2NC(=O)OC(C)c2cscc2C)ccc1-c1ccc(C2(C(=O)O)CC2)cc1` (racemic) [I-783, (RS)-1-{4′-[5-Chloro-3-({[1-(4-methylthiophen-3-yl)ethoxy]carbonyl}amino)thiophen-2-yl]-2′-methoxy-[1,1′-biphenyl]-4-yl}cyclopropanecarboxylic acid] as the compound, how does the IC50 read?
Answer: ≤ 200 nM

Question: How did the IC50 turn out when `COc1cc(-c2sc(Cl)cc2NC(=O)OC(C)c2cscc2Cl)ccc1-c1ccc(C2(C(=O)O)CC2)cc1` (racemic) [I-791, (RS)-1-{4′-[5-Chloro-3-({[1-(4-chlorothiophen-3-yl)ethoxy]carbonyl}amino)thiophen-2-yl]-2′-methoxy-[1,1′-biphenyl]-4-yl}cyclopropanecarboxylic acid] was run?
Answer: ≤ 200 nM

Question: How did the IC50 turn out when `COc1cc(-c2sc(F)cc2NC(=O)OC(C)c2cscc2C)ccc1-c1ccc(C2(C(=O)O)CC2)cc1` (racemic) [I-815, (RS)-1-{4′-[5-Fluoro-3-({[1-(4-methylthiophen-3-yl)ethoxy]carbonyl}amino)thiophen-2-yl]-2′-methoxy-[1,1′-biphenyl]-4-yl}cyclopropanecarboxylic acid] was run?
Answer: ≤ 200 nM

Question: With `COc1cc(-c2sc(F)cc2NC(=O)OC(C)c2cscc2Cl)ccc1-c1ccc(C2(C(=O)O)CC2)cc1` (racemic) [I-823, (RS)-1-{4′-[3-({[1-(4-Chlorothiophen-3-yl)ethoxy]carbonyl}amino)-5-fluorothiophen-2-yl]-2′-methoxy-[1,1′-biphenyl]-4-yl}cyclopropanecarboxylic acid] as the compound, how does the IC50 read?
Answer: ≤ 200 nM

Question: With `C[C@@H](OC(=O)Nc1cc(Cl)sc1-c1ccc(-c2ccc(C3(C(=O)O)CC3)cc2)cc1)c1ccc(F)c(F)c1` [I-72, (R)-1-{4′-[5-Chloro-3-({[1-(3,4-difluorophenyl)ethoxy]carbonyl}amino)thiophen-2-yl]-[1,1′-biphenyl]-4-yl}cyclopropanecarboxylic acid] as the compound, how does the IC50 read?
Answer: ≤ 200 nM

Question: For `C[C@@H](OC(=O)Nc1cc(F)sc1-c1ccc(-c2ccc(C3(C(=O)O)CC3)cc2)cc1)c1ccc(F)c(F)c1` [I-148, (R)-1-{4′-[3-({[1-(3,4-Difluorophenyl)ethoxy]carbonyl}amino)-5-fluorothiophen-2-yl]-[1,1′-biphenyl]-4-yl}cyclopropanecarboxylic acid], which IC50 is on record?
Answer: ≤ 200 nM

Question: Which IC50 does the source give for `COc1cc(-c2sc(Cl)cc2NC(=O)O[C@H](C)c2ccc(F)cc2Cl)ccc1-c1ccc(C2(C(=O)O)CC2)cc1` [I-396, (R)-1-{4′-[5-Chloro-3-({[1-(2-chloro-4-fluorophenyl)ethoxy]carbonyl}amino)thiophen-2-yl]-2′-methoxy-[1,1′-biphenyl]-4-yl}cyclopropanecarboxylic acid] here?
Answer: ≤ 200 nM

Question: `COc1cc(-c2sc(F)cc2NC(=O)O[C@H](C)c2ccc(Cl)cc2)ccc1-c1ccc(C2(C(=O)O)CC2)cc1` [I-446, (R)-1-{4′-[3-({[1-(4-Chlorophenyl)ethoxy]carbonyl}amino)-5-fluorothiophen-2-yl]-2′-methoxy-[1,1′-biphenyl]-4-yl}cyclopropanecarboxylic acid] was tested. Which IC50 did it give?
Answer: ≤ 200 nM

Question: For `COc1cc(-c2sc(F)cc2NC(=O)O[C@H](C)c2ccc(F)cc2F)ccc1-c1ccc(C2(C(=O)O)CC2)cc1` [I-454, (R)-1-{4′-[3-({[1-(2,4-Difluorophenyl)ethoxy]carbonyl}amino)-5-fluorothiophen-2-yl]-2′-methoxy-[1,1′-biphenyl]-4-yl}cyclopropanecarboxylic acid], which IC50 is on record?
Answer: ≤ 200 nM

Question: Which IC50 does the source give for `COc1cc(-c2sc(F)cc2NC(=O)O[C@H](C)c2ccc(F)cc2Cl)ccc1-c1ccc(C2(C(=O)O)CC2)cc1` [I-466, (R)-1-{4′-[3-({[1-(2-Chloro-4-fluorophenyl)ethoxy]carbonyl}amino)-5-fluorothiophen-2-yl]-2′-methoxy-[1,1′-biphenyl]-4-yl}cyclopropanecarboxylic acid] here?
Answer: ≤ 200 nM

Question: `C[C@@H](OC(=O)Nc1cc(Cl)sc1-c1ccc(-c2ccc(C3(C(=O)O)CC3)cc2)c([N+](=O)[O-])c1)c1ccccc1` [I-490, (R)-1-[4′-(5-Chloro-3-{[(1-phenylethoxy)carbonyl]amino}thiophen-2-yl)-2′-nitro-[1,1′-biphenyl]-4-yl]cyclopropanecarboxylic acid] was tested. Which IC50 did it give?
Answer: ≤ 200 nM

Question: How did the IC50 turn out when `C[C@@H](OC(=O)Nc1cc(Cl)sc1-c1ccc(-c2ccc(C3(C(=O)O)CC3)cc2)c([N+](=O)[O-])c1)c1ccc(F)cc1` [I-498, (R)-1-{4′-[5-Chloro-3-({[1-(4-fluorophenyl)ethoxy]carbonyl}amino)thiophen-2-yl]-2′-nitro-[1,1′-biphenyl]-4-yl}cyclopropanecarboxylic acid] was run?
Answer: ≤ 200 nM

Question: How did the IC50 turn out when `C[C@@H](OC(=O)Nc1cc(Cl)sc1-c1ccc(-c2ccc(C3(C(=O)O)CC3)cc2)c([N+](=O)[O-])c1)c1ccccc1Cl` [I-502, (R)-1-{4′-[5-Chloro-3-({[1-(2-chlorophenyl)ethoxy]carbonyl}amino)thiophen-2-yl]-2′-nitro-[1,1′-biphenyl]-4-yl}cyclopropanecarboxylic acid] was run?
Answer: ≤ 200 nM

Question: `C[C@@H](OC(=O)Nc1cc(Cl)sc1-c1ccc(-c2ccc(C3(C(=O)O)CC3)cc2)c(N)c1)c1ccccc1` [I-534] was tested. Which IC50 did it give?
Answer: ≤ 200 nM

Question: Which IC50 does the source give for `C[C@@H](OC(=O)Nc1cc(Cl)sc1-c1ccc(-c2ccc(C3(C(=O)O)CC3)cc2)cc1)c1cccs1` [I-630, (R)-1-{4′-[5-Chloro-3-({[1-(thiophen-2-yl)ethoxy]carbonyl}amino)thiophen-2-yl]-[1,1′-biphenyl]-4-yl}cyclopropanecarboxylic acid] here?
Answer: ≤ 200 nM

Question: How did the IC50 turn out when `C[C@@H](OC(=O)Nc1cc(F)sc1-c1ccc(-c2ccc(C3(C(=O)O)CC3)cc2)cc1)c1cccs1` [I-674, (R)-1-{4′-[5-Fluoro-3-({[1-(thiophen-2-yl)ethoxy]carbonyl}amino)thiophen-2-yl]-[1,1′-biphenyl]-4-yl}cyclopropanecarboxylic acid] was run?
Answer: ≤ 200 nM

Question: How did the IC50 turn out when `COc1cc(-c2sc(Cl)cc2NC(=O)O[C@H](C)c2cccs2)ccc1-c1ccc(C2(C(=O)O)CC2)cc1` [I-808, (R)-1-{4′-[5-Chloro-3-({[1-(thiophen-2-yl)ethoxy]carbonyl}amino)thiophen-2-yl]-2′-methoxy-[1,1′-biphenyl]-4-yl}cyclopropanecarboxylic acid] was run?
Answer: ≤ 200 nM
